“And” between values parts separate entries of the source, which are not always exact repeats. Identical values can stand only once.
Experiments:
Plasmodium falciparum [1] = experiment: Plasmodium falciparum sporozoite viability assay; format: functional, organism-based; details: for IC50: Plasmodium falciparum
[2] = microbe, parasite or virus in culture; details: Mycobacterium tuberculosis, 72 h, read-out: pIC50 (converted)
[3] = microbe, parasite or virus in culture; details: Mycobacterium tuberculosis, 96 h, read-out: pIC50 (converted)
Plasmodium falciparum [4] = experiment: Calibr Malaria Delayed Death Assay SOP; format: functional, organism-based; details: for IC50: Plasmodium falciparum
Histidine--tRNA ligase = target: T1, Histidine--tRNA ligase (Leishmania infantum, UniProt A4I591); experiment: Leishmania infantum Histidine tRNA synthetase (LdHisRS); format: functional
T1 sequence (A4I591 whole entry): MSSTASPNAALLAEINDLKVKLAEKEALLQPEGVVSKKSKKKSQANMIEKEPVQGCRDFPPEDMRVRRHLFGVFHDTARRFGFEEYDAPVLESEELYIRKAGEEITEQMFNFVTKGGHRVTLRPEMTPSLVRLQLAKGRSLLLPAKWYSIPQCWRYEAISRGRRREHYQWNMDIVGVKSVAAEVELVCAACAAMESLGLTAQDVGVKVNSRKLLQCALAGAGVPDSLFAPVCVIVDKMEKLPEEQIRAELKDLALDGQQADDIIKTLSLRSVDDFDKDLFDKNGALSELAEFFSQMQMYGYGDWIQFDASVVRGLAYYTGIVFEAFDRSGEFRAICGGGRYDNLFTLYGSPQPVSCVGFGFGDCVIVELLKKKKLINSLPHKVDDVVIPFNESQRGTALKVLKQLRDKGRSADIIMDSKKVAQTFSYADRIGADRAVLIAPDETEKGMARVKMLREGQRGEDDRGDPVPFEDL

Schistosoma mansoni = experiment: High throughput screening of compounds against Schistosoma mansoni motility; format: functional; parameters: dose or concentration left out as unconfirmed

| Structure (SMILES) | pIC50 (Plasmodium falciparum [1]) | IC50 (Plasmodium falciparum [1]) [nM] | further results |
| --- | --- | --- | --- |
| FC(F)(F)Oc1ccc(-c2noc([C@@H]3Cc4nc[nH]c4CN3)n2)cc1 | 6.357 | 221 | IC50 [2]: > 50100 nM; IC50 [3]: > 50100 nM |
| COC(=O)CSCc1noc(-c2ccc(C)cc2)n1 | 6.885 and 7.313 |  | IC50 [2]: 24400 nM; IC50 [3]: > 50100 nM |
| Cc1ccc(-c2ccc(C3CNCCO3)nc2)cc1.Cl (stereo unspecified) | 7.716 | 23.1 | pIC50 (Plasmodium falciparum [4]): 6.712; IC50 (Plasmodium falciparum [4]): 108 nM |
| Cl.Clc1ccc(-c2ccc(C3CNCCO3)nc2)cc1 (stereo unspecified) |  | 75 | pIC50 (Plasmodium falciparum [4]): 6.505; IC50 (Plasmodium falciparum [4]): 433 nM |
| Cc1cncc(NC(=O)c2ccc(CN3CC[C@H](O)C3)cc2)c1 | 6.801 | 80.2 |  |
| COCCN(C)c1ccc(NCc2cscn2)nc1 | 6.387 | 391 |  |
| Clc1ccc2nc(N3CCC(NCCCC4CCOC4)CC3)sc2c1 (stereo unspecified) | 5.724 | 3770 |  |
| CNC(=O)CCC(=O)N1CCOC(c2ccc3cc(OC)ccc3c2)C1 (stereo unspecified) | 7.215 | 83 |  |
| CC(C)c1n[nH]c(C(=O)Nc2ccnn2C(C)C)c1Br | 6.017 | 970 |  |
| Cc1ccsc1-c1cccc(-c2ccn(CC3CCNC3)n2)c1 (stereo unspecified) | 5.798 | 2580 | IC50 [2]: 23800 nM; IC50 [3]: 21300 nM |
| CC(C)(C)n1ncc2c(=O)n(CC(=O)NCc3ccccc3)cnc21 | 7.194 | 43 |  |
| CCn1ncc2c1CCCC2NCc1cccc2c1OCO2 (stereo unspecified) | 5.451 | 4370 |  |
| CSc1cc2c(cc1NC(=O)NCCn1ccnc1)OCCO2 | 6.776 | 126 |  |
| O=C(NCCNc1cc(N2CCCC2)cnn1)Nc1ccccc1F | 6.092 | 819 |  |
| Cc1ccnc(NC(=O)CSCc2cccnc2)c1 | 7.141 and 6.819 |  |  |
| COc1cc(F)c(NCc2nc3ccccc3n2C)cc1OC |  | 260 | IC50 (Histidine--tRNA ligase): 59700 nM and 57600 nM |
| OCC1CCCN1c1cc(NCCc2ccsc2)ncn1 (stereo unspecified) | 7.515 | 59.6 |  |
| Cc1c(F)cc(C(=O)O)cc1S(=O)(=O)Nc1ccc2c(c1)OCCO2 | 5.599 | 3790 |  |
| CSc1ccc(-c2nc(CN3CCC(NC(C)=O)C3)c(C)o2)cc1 (stereo unspecified) | 6.077 | 533 |  |
| O=C(CCn1cccn1)NS(=O)(=O)N1CCCc2ccccc21 | 6.348 | 495 |  |

| Structure (SMILES) | pIC50 (Plasmodium falciparum [1]) | IC50 (Plasmodium falciparum [1]) [nM] | further results |
| --- | --- | --- | --- |
| CC(C)(C)n1ncc2c1CCCC2NCc1ccc2c(c1)OCCO2 (stereo unspecified) | 6.564 | 411 |  |
| CC(NC(=O)c1cc(C(C)C)[nH]n1)C(=O)Nc1ccccc1 (stereo unspecified) | 7.217 | 48.9 |  |
| Cc1cn2c(n1)C(CNCC1=Cc3ccccc3OC1)CCC2 (stereo unspecified) | 7.385 | 62.3 | pIC50 (Plasmodium falciparum [4]): 5.983; IC50 (Plasmodium falciparum [4]): 903 nM |
| CN1CCOC(C(=O)Nc2ccc3c(c2)nc(C(C)(C)C)n3C)C1 (stereo unspecified) | 7.552 | 16.9 |  |
| CC(C)(C)n1cc(C2=CCN(CCc3ccccc3)CC2)cn1 | 5.875 | 1530 | Percent Effect (Schistosoma mansoni): 26.35%; pIC50 (Plasmodium falciparum [4]): 6.257; IC50 (Plasmodium falciparum [4]): 571 nM |
| Cc1cccc(Nc2cc(C3CCCN(CC(N)=O)C3)ccn2)n1.O=CO.O=CO (stereo unspecified) | 6.742 | 186 |  |
| CC(C)c1nc2c(n1C)CCN(Cc1nc(-c3ccoc3)no1)C2 | 5.631 | 3150 |  |
| Cc1nnc(CN(C)Cc2nc3c(s2)CCCC3)o1 | 5.52 | 3560 |  |
| Cc1ccc(Nc2nccc(C3CCN(CC(N)=O)C3)n2)nc1 (stereo unspecified) | 7.48 | 21 |  |
| Cc1nc(COc2ccc(OC3CCCCNC3=O)cc2)oc1C (stereo unspecified) | 7.451 | 39 |  |
| CCN1CCN(Cc2coc(-c3cccc(F)c3)n2)CC1 | 6.19 | 800 |  |
| NC(=O)c1ccc(NC(=O)Cn2cc(I)cn2)cc1 | 5.308 | 3070 |  |
| CC/N=c1\nc(NCC)nc2n1C(O)(Nc1ccc(C)cc1C)CS2 (stereo unspecified) | 5.511 | 2830 |  |
| c1ccc(-c2nc(CN3CCc4c(ncn4C4CC4)C3)cs2)cc1 | 5.414 | 2990 |  |
| c1cc(OCc2ccc3c(c2)OCO3)ccc1CNC1CC1 |  | > 10500 |  |
| Cn1cnnc1C1CCN(C(=O)CCCOc2ccccc2F)CC1 | 6.053 | 1300 |  |
| CCC(=O)NC1CCCN(C(=O)Nc2cc(-c3ccccc3)on2)C1 (stereo unspecified) | 6.751 | 187 |  |
| COc1cc(NC(=O)c2ccc(CN3CC[C@H](O)C3)cc2)cc(OC)c1 | 6.645 | 175 |  |
| CCn1cc(NC(=O)Nc2ccc3c(c2)OCCO3)cn1 | 7.305 and 6.856 |  |  |
| CN(C)CCNC(=O)C1Cc2nc(-c3ccccc3)sc2N1CC1CC1 (stereo unspecified) |  | 3590 | IC50 [2]: > 50100 nM; IC50 [3]: > 50100 nM |

— ChEMBL document CHEMBL3988442, “University of Dundee, Small-Polar-MMV Screening Library” (2021)
